In patent EP1140925B1, “(3,4 DIHYDRO-2H-BENZO[1,4] OXAZINYL-METHYL)- 3-(1H-INDOL-3- YL)-ALKYL -AMINES” (Wyeth, priority 1999, dated 2000) one finds Ki data, which are given here for 16 compounds.

Broadly, the Ki is a dissociation constant, usually derived from enzyme kinetics or from competition with a known ligand.

For one assay, the target named is T1, serotonin transporter (Rattus norvegicus, UniProt P31652).
T1 construct: frontal cortical membranes prepared from male Sprague-Dawley rats; from tissue; host or cells: frontal cortex membranes of male Sprague-Dawley rats
T1 sequence (P31652 whole entry): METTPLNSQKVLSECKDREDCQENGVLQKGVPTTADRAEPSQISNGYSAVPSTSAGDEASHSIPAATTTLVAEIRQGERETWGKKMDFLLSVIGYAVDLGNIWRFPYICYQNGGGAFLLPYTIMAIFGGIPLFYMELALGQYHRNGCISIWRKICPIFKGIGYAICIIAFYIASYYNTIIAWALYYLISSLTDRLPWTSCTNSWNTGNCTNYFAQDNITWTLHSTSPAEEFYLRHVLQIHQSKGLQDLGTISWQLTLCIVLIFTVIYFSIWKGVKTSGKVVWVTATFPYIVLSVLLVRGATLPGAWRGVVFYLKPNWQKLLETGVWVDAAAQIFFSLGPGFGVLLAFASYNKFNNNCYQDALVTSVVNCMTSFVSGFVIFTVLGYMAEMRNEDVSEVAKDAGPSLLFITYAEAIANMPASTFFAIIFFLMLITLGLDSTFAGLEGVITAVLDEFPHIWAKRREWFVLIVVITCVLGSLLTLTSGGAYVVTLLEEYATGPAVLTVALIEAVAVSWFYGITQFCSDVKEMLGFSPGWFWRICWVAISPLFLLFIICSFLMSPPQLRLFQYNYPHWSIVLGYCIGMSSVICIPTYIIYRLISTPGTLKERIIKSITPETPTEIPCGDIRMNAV
Put plainly: Serotonin transporter affinity, 3H-paroxetine binding to frontal cortical membranes. Also noted: species or system Sprague-Dawley rats. Conditions: 3H-paroxetine 0.1 nM, head also allows % Inh. @.1 µM.

A further assay concerns the target T2, human 5-HT1A receptor (Homo sapiens, UniProt P08908).
T2 construct: expressed in transfected cells
T2 sequence (P08908 1-422): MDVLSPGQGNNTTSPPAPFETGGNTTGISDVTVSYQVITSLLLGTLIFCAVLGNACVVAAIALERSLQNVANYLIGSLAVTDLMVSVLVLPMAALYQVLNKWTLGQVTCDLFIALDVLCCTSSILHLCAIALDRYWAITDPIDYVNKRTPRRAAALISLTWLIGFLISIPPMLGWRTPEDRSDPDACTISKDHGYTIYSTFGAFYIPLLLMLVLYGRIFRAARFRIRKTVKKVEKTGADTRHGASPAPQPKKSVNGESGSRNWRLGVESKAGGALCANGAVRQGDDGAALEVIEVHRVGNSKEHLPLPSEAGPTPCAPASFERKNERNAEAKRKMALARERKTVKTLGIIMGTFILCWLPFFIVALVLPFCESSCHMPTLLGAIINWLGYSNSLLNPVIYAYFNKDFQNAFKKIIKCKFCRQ
Briefly: 5-HT1A receptor binding assay with [3H]8-OH-DPAT in CHO cell membranes. The note with it: [3H]8-OH-DPAT 1.5 nM, membranes of CHO cells expressing human 5-HT1A receptor. As for the experimental part:
A stable Chinese hamster ovary cell line expressing the human 5-HT1A receptor subtype (5H-HT1A.CHO cells) was employed throughout this procedure. Cells were maintained in DMEM supplemented with 10% fetal calf serum, non-essential amino acids and penicillin/ streptomycin.
Cells were grown to 95-100% confluency as a monolayer before membranes were harvested for binding studies. Cells were gently scraped from the culture plates, transferred to centrifuge tubes, and washed twice by centrifugation (at 2000 rpm for 10 min., 4°C) in buffer (50 mM Tris; pH 7.5). The resulting pellets were aliquoted and stored at -80•C until needed. On the day of assay, the cells were thawed on ice, and resuspended in buffer. Studies were conducted using [^3H]8-OH-DPAT as the radioligand. The binding assay was performed in 96 well microtiter plates in a final total volume of 250 µL of buffer. […] Non-specific binding was determined in the presence of 10 µM 5HT. Saturation analysis was conducted by using [^3H]8-OH-DPAT at concentrations ranging from 0.3-30 nM. Following a 30 minute incubation at room temperature, the reaction was terminated by the addition of ice cold buffer and rapid filtration using a M-96 Brandel Cell Harvester through a GF/B filter presoaked for 30 minutes in 0.5% polyethyleneimine.

Where [1] appears, read: read-out: ST (Ki, nM, % Inh. @.1 µM).

Like-named read-outs stand apart in the source and are kept apart here.

Procedure for serotonin transporter: Briefly, frontal cortical membranes prepared from male Sprague-Dawley rats were incubated with ^3H-paroxetine (0.1 nM) for 60 min at 25°C. All tubes also contained either vehicle, test compound (one to eight concentrations), or a saturating concentration of fluoxetine (10 µM) to define specific binding. All reactions were terminated by the addition of ice cold Tris buffer followed by rapid filtration using a Tom Tech filtration device to separate bound from free ^3H-paroxetine.

`Fc1ccc2[nH]cc(CCCNCC3CN(c4ccccc4)c4ccccc4O3)c2c1` (single isomer, unassigned; (+)) [Example 19] yielded a Ki at serotonin transporter (ST (Ki, nM, % Inh. @.1 µM)) of 40 nM.

For `Fc1ccc2[nH]cc(CCCNCC3CN(c4ccccc4)c4ccccc4O3)c2c1` (single isomer, unassigned; (-)) [Example 18], on serotonin transporter (ST (Ki, nM, % Inh. @.1 µM)), the Ki was 34 nM.

On to `c1ccc2c(c1)NCC(CNCCCc1c[nH]c3ccccc13)O2` (stereo not drawn) [Example 1], for which the Ki on serotonin transporter (setting [1]) was determined as 79 nM; on human 5-HT1A receptor it was 6.9 nM.

Regarding `CN1CC(CNCCCc2c[nH]c3ccccc23)Oc2ccccc21` (stereo not drawn) [Example 2], the Ki came out at 112 nM on serotonin transporter (ST (Ki, nM, % Inh. @.1 µM)) and 5.9 nM at human 5-HT1A receptor.

On to `c1ccc(CN2CC(CNCCCc3c[nH]c4ccccc34)Oc3ccccc32)cc1` (stereo not drawn) [Example 3, (4-Benzyl-3,4-dihydro-2H-benzo[1,4]oxazin-2ylmethyl)-[3-(1H-indo-3-yl)-propyl]-amine], for which the Ki at serotonin transporter (ST (Ki, nM, % Inh. @.1 µM)) was determined as 21 nM; at human 5-HT1A receptor it was 7.8 nM.

For the compound `CN1CC(CNCCCc2c[nH]c3ccc(F)cc23)Oc2ccccc21` (stereo not drawn) [Example 5, [3-(5-Fluoro-1H-indol-3-yl)-propyl]-(4-methyl-3,4-dihydro-2H-benzo[1,4]oxazin-2-yl-methyl)-amine], the Ki came to 5.7 nM at serotonin transporter (setting [1]) and 8.5 nM at human 5-HT1A receptor.

In the case of `c1ccc(N2CC(CNCCCc3c[nH]c4ccccc34)Oc3ccccc32)cc1` (stereo not drawn) [Example 7, [3-(1H-Indol-3-yl)-propyl]-4-phenyl-3,(4-dihydro-2H-benzo[1,4]oxazin-2-yl-methyl)-amine], at human 5-HT1A receptor, the Ki is 30.2 nM.

In the case of `CC(C)N1CC(CNCCCc2c[nH]c3ccc(F)cc23)Oc2ccccc21` (stereo not drawn) [Example 8, [3-(5-Fluoro-1H-indol-3-yl)-propyl]-(4-isopropyl-3,4-dihydro-2H-benzo[1,4]oxazin-2yl-methyl)-amine], the Ki at serotonin transporter (setting [1]) stood at 25 nM; at human 5-HT1A receptor, 2.8 nM.

Take `CC(C)CN1CC(CNCCCc2c[nH]c3ccc(F)cc23)Oc2ccccc21` (stereo not drawn) [Example 10]: the Ki at serotonin transporter (ST (Ki, nM, % Inh. @.1 µM)) turned out to be 85 nM; at human 5-HT1A receptor, 8.15 nM.

As for `Fc1ccc2[nH]cc(CCCNCC3CN(c4ccccc4)c4ccccc4O3)c2c1` (stereo not drawn) [Example 11, [3-(5-Fluoro-1H-indol-3-yl)-propyl]-(4-phenyl-3,4-dihydro-2H-benzo[1,4]oxazin-2-yl-methyl)-amine], the Ki on serotonin transporter (setting [1]) is 43 nM.

For the compound `CCN1CC(CNCCCc2c[nH]c3ccc(F)cc23)Oc2ccccc21` (stereo not drawn) [Example 13, [3-(5-Fluoro-1H-indol-3-yl)-propyl]-(4-ethyl-3,4-dihydro-2H-benzo[1,4]oxazin-2-yl-methyl)-amine], the values for the Ki at serotonin transporter (setting [1]) and at human 5-HT1A receptor were 15 nM and 15.3 nM, respectively.

For `CCCN1CC(CNCCCc2c[nH]c3ccc(F)cc23)Oc2ccccc21` (stereo not drawn) [Example 14, [3-(5-Fluoro-1H-indol-3-yl)-propyl]-(4-propyl-3,4-dihydro-2H-benzo[1,4]oxazin-2-yl-methyl)-amine], the results for the Ki at serotonin transporter (setting [1]) and at human 5-HT1A receptor were 26 nM and 16.8 nM, respectively.

In the case of `CN1CC(CNCCCc2c[nH]c3ccc(F)cc23)Oc2cc(Cl)ccc21` (stereo not drawn) [Example 15, (7-Chloro-4-methyl-3,4-dihydro-2H-benzo[1,4]oxazin-2ylmethyl)-[3-(5-fluoro-1H-indol-3-yl)-propyl]-amine], the Ki was 44 nM on serotonin transporter (setting [1]) and 75.2 nM on human 5-HT1A receptor.

For `Fc1ccc2[nH]cc(CCCNCC3CNc4ccccc4O3)c2c1` (stereo not drawn) [Example 16, (3,4-Dihydro-2H-benzo[1,4]oxazin-2ylmethyl)-[3-(5-fluoro-1H-indol-3-yl)-propyl]-amine], the results for the Ki at serotonin transporter (setting [1]) and at human 5-HT1A receptor were 16 nM and 11 nM, respectively.

Turning to `COc1ccc2c(c1)OC(CNCCCc1c[nH]c3ccc(F)cc13)CN2` (stereo not drawn) [Example 17], the Ki on serotonin transporter (setting [1]) worked out at 15 nM; on human 5-HT1A receptor, 103 nM.

Turning to `Fc1ccc2[nH]cc(CCCNCC3COc4ccccc4N3)c2c1` (stereo not drawn) [Example 20, (3,4-Dihydro-2H-benzo[1,4]oxazin-3-yl-methyl)-[3-(5-fluoro-1H-indol-3-yl)propyl]-amine], the affinity on human 5-HT1A receptor corresponds to a Ki of 12.3 nM.
